Experimental data reported in ChEMBL document CHEMBL2163233, “3-Oxoisoindoline-1-carboxamides: potent, state-dependent blockers of voltage-gated sodium channel Na(V)1.7 with efficacy in rat pain models” (J Med Chem, 2012).
Activity calls are given as the source filed them. The rule behind the calls is not given here.

How the values were obtained:
[1] = in vivo; settings: Sprague-Dawley, rat, brain/plasma
[2] = biological target: Estrogen receptor (Homo sapiens) (UniProt P03372); settings: 10 uM
[3] = in vivo; settings: Sprague-Dawley, rat, po, 10 umol/kg
[4] = biological target: Voltage-dependent T-type calcium channel subunit alpha-1H (Homo sapiens) (UniProt O95180); settings: 31.6 uM
[5] = biological target: Mu-type opioid receptor (Homo sapiens) (UniProt P35372); settings: 10 uM
[6] = biological target: Acetylcholinesterase (Homo sapiens) (UniProt P22303); settings: 10 uM
[7] = biological target: Alpha-2A adrenergic receptor (Homo sapiens) (UniProt P08913); settings: 10 uM
[8] = biological target: Histamine H1 receptor (Homo sapiens) (UniProt P35367); settings: 10 uM
[9] = biological target: Insulin receptor (Homo sapiens) (UniProt P06213); settings: 10 uM
[10] = biological target: Nitric oxide synthase 3 (Homo sapiens) (UniProt P29474); settings: 10 uM
[11] = organism: Rattus norvegicus; assay: animal or person; settings: Sprague-Dawley, po, read-out: INH
[12] = organism: Rattus norvegicus; assay: animal or person; settings: Sprague-Dawley, po, read-out: INH; remark: listed apart in the source
[13] = biological target: Beta-1 adrenergic receptor (Homo sapiens) (UniProt P08588); settings: 10 uM
[14] = biological target: Muscarinic acetylcholine receptor M2 (Homo sapiens) (UniProt P08172); settings: 10 uM
[15] = biological target: Sodium-dependent noradrenaline transporter (Homo sapiens) (UniProt P23975); settings: 10 uM
[16] = biological target: Transient receptor potential cation channel subfamily A member 1 (Homo sapiens) (UniProt O75762); settings: 11 uM
[17] = in vitro; settings: Sprague-Dawley, rat, plasma
[18] = in vivo; settings: Sprague-Dawley, rat, po, 10 umol/kg; remark: listed apart in the source
[19] = organism: Rattus norvegicus; assay: animal or person; settings: Sprague-Dawley, po, read-out: INH; remark: listed apart in the source
[20] = organism: Rattus norvegicus; assay: animal or person; settings: Sprague-Dawley, po, read-out: INH; remark: listed apart in the source
[21] = organism: Rattus norvegicus; settings: Brain, Brain membranes, 10 uM
[22] = organism: Rattus norvegicus; assay: animal or person; settings: Sprague-Dawley, po, read-out: INH; remark: listed apart in the source
[23] = in vivo; settings: Sprague-Dawley, rat, iv, 3 umol/kg
[24] = in vivo; settings: Sprague-Dawley, rat, po, 10 umol/kg; remark: listed apart in the source
[25] = biological target: Prostaglandin G/H synthase 1 (Homo sapiens) (UniProt P23219); settings: 10 uM
[26] = cells; settings: Homo sapiens, HEK293
[27] = in vivo; settings: Sprague-Dawley, rat, po, 10 umol/kg; remark: listed apart in the source
[28] = biological target: D(2) dopamine receptor (Homo sapiens) (UniProt P14416); settings: 10 uM
[29] = organism: Rattus norvegicus; assay: animal or person; settings: Sprague-Dawley, po, read-out: INH; remark: listed apart in the source
[30] = organism: Rattus norvegicus; assay: animal or person; settings: Sprague-Dawley, po, read-out: INH; remark: listed apart in the source
[31] = organism: Rattus norvegicus; assay: animal or person; settings: Sprague-Dawley, po, read-out: INH; remark: listed apart in the source
[32] = biological target: Alpha-1D adrenergic receptor (Homo sapiens) (UniProt P25100); settings: 10 uM
[33] = biological target: Glycine receptor subunit alpha-1 (Homo sapiens) (UniProt P23415); settings: 33 uM
[34] = biological target: 5-hydroxytryptamine receptor 2A (Homo sapiens) (UniProt P28223); settings: 10 uM
[35] = in vivo; settings: Sprague-Dawley, rat, po, 10 umol/kg; remark: listed apart in the source
[36] = biological target: Potassium voltage-gated channel subfamily A member 5 (Homo sapiens) (UniProt P22460); settings: 10 uM
[37] = biological target: Potassium voltage-gated channel subfamily KQT member 2 (Homo sapiens) (UniProt O43526); settings: 10 uM
[38] = in vivo; settings: Sprague-Dawley, rat, iv, 3 umol/kg; remark: listed apart in the source
[39] = in vivo; settings: Sprague-Dawley, rat, iv, 3 umol/kg; remark: listed apart in the source
[40] = in vitro; settings: human, microsomes, CLH
[41] = in vivo; settings: Sprague-Dawley, rat, iv, 3 umol/kg; remark: listed apart in the source
[42] = in vitro; settings: rat, microsomes, CLH

Sequence of Prostaglandin G/H synthase 1 (Homo sapiens) (P23219 whole entry): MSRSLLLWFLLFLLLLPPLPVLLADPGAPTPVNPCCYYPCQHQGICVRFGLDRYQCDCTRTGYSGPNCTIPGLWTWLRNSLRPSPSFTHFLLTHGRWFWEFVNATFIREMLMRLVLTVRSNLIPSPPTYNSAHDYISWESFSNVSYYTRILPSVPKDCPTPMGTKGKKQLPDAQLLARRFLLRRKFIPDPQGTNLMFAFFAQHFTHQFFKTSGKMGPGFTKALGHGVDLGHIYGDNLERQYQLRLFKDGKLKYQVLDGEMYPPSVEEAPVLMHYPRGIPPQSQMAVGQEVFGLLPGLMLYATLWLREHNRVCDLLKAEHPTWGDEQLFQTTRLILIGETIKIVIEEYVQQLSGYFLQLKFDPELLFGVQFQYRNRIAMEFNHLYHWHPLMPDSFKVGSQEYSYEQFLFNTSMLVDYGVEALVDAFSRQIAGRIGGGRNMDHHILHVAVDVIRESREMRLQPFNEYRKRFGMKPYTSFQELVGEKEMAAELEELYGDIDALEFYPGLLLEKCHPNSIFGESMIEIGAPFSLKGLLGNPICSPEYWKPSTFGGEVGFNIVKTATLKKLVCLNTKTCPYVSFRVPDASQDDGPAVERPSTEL
Sequence of Alpha-2A adrenergic receptor (Homo sapiens) (P08913 whole entry): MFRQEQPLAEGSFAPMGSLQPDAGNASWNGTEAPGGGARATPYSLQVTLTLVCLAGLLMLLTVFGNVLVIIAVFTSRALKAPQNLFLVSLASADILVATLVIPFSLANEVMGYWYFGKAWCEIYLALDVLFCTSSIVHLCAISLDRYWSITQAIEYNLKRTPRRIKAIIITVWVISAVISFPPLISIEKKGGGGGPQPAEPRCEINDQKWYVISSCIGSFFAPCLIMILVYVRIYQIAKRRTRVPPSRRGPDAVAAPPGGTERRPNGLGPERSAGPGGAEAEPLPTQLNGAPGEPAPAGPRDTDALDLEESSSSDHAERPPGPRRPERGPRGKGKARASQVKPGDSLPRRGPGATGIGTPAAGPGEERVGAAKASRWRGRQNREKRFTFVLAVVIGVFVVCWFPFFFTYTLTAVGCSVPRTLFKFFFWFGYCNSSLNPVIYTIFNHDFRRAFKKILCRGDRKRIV
Sequence of Insulin receptor (Homo sapiens) (P06213 28-758 limits assumed): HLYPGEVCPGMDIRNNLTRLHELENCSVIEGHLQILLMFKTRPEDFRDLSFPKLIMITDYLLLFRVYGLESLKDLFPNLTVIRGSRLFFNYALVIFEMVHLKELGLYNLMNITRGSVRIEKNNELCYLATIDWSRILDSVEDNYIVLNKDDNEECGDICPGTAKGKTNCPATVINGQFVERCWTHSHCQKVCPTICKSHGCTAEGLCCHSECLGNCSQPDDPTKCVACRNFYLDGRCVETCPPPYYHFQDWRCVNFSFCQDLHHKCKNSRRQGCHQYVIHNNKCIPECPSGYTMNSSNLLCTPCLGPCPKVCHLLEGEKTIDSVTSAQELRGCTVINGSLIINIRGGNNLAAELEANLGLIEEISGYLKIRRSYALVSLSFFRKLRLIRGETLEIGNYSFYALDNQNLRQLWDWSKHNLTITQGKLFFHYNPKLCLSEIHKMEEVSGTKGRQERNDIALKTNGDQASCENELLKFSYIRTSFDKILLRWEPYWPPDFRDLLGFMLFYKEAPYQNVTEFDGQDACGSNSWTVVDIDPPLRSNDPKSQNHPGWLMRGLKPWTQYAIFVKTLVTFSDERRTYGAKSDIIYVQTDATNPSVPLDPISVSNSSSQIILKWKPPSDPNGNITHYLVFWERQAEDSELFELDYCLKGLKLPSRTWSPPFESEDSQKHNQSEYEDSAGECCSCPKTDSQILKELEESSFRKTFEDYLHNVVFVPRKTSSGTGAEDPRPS
Sequence of Insulin receptor (Homo sapiens) (P06213 763-1382 limits assumed): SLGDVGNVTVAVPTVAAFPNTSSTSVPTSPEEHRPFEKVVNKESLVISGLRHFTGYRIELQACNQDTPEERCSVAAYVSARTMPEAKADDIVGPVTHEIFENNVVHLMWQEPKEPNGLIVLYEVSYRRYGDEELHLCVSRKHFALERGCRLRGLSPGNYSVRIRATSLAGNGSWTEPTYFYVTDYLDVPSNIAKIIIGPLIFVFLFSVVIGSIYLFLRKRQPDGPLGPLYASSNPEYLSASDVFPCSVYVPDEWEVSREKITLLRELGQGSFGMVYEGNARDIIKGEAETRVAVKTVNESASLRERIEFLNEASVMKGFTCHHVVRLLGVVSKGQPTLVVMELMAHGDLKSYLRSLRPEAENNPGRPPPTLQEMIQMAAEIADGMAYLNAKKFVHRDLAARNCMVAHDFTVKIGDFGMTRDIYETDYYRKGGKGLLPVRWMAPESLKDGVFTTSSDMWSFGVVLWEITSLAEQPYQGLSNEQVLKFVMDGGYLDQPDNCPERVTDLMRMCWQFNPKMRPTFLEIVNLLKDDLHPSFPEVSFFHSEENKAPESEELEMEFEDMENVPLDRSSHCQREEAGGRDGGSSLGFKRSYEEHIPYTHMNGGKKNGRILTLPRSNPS
Sequence of Alpha-1D adrenergic receptor (Homo sapiens) (P25100 whole entry): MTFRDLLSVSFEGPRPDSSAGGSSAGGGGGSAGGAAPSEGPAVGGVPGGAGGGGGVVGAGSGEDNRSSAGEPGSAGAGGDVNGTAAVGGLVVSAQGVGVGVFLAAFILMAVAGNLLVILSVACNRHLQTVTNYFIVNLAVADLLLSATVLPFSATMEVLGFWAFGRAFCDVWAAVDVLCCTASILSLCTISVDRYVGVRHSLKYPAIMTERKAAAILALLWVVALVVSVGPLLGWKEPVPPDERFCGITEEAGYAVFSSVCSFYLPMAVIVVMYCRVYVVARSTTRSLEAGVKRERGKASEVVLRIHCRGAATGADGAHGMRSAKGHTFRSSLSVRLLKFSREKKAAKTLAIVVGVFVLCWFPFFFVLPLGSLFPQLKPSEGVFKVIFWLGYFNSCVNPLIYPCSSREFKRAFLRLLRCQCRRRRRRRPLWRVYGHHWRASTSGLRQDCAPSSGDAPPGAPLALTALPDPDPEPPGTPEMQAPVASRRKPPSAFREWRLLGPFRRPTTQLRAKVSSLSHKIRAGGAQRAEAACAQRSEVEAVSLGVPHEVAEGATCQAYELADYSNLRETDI
Sequence of D(2) dopamine receptor (Homo sapiens) (P14416 whole entry): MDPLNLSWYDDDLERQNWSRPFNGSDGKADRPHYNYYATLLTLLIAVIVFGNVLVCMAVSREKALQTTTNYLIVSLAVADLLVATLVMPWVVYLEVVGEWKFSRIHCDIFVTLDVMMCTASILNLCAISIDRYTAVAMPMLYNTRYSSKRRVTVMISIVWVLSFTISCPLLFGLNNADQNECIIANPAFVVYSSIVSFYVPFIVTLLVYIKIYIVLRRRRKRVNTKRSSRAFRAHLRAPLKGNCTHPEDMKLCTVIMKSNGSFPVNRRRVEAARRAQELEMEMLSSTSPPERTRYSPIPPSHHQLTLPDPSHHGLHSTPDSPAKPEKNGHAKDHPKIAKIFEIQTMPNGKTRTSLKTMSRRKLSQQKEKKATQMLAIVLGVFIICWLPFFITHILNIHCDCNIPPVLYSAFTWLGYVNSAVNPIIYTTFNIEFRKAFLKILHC
Sequence of Glycine receptor subunit alpha-1 (Homo sapiens) (P23415 whole entry): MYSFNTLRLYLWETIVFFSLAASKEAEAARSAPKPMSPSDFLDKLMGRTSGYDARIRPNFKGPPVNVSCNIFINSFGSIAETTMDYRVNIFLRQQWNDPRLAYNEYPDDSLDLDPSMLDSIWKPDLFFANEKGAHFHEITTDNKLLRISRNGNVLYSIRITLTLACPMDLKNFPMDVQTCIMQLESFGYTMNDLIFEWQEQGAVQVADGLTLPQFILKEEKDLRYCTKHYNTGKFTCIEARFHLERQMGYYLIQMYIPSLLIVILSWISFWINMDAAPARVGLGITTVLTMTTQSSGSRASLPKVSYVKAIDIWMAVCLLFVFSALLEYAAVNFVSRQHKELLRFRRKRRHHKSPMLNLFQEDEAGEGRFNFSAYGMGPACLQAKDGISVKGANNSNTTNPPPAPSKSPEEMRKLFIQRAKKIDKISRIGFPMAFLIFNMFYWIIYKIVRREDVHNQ
Sequence of Histamine H1 receptor (Homo sapiens) (P35367 whole entry): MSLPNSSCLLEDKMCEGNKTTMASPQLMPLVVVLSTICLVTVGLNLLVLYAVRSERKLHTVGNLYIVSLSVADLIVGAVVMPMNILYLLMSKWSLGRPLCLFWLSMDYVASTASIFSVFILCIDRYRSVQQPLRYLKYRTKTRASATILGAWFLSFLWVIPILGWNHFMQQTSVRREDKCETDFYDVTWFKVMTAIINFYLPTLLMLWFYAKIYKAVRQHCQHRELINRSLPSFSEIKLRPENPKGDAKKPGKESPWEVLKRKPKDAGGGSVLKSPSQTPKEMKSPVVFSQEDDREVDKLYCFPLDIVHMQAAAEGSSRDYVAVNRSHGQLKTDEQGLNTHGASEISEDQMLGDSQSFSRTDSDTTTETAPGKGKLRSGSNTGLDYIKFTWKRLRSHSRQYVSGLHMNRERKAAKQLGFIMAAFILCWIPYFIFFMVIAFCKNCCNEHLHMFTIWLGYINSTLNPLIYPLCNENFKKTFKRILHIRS
Sequence of Beta-1 adrenergic receptor (Homo sapiens) (P08588 whole entry, looked up): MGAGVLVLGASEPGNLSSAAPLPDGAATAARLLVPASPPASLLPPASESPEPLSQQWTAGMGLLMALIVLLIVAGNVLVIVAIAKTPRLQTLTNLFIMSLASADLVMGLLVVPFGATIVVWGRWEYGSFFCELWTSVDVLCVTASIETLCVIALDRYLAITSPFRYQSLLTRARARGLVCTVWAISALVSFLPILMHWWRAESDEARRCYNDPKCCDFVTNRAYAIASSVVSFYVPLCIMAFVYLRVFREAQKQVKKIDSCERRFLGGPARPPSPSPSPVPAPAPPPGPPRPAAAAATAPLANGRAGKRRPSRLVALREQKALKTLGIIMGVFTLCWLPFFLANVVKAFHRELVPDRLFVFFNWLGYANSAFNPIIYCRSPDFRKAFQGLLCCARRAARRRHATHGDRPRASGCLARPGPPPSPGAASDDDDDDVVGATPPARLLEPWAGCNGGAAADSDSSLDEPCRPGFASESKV

Row | SMILES | Kp [1] | inhibition [2] | Tmax [3] [h] | inhibition [4] | inhibition [5] | inhibition [6] | inhibition [7] | inhibition [8] | inhibition [9] | inhibition [10] | inhibition in vivo at 100 µmol/kg [11] [%] | inhibition [13] | inhibition [14] | inhibition [15] | inhibition [16] | fraction unbound [17] | half-life [18] [h] | inhibition in vivo at 30 µmol/kg [19] [%] | inhibition in vivo at 30 µmol/kg [20] [%] | inhibition [21] [%] | further results
1 | O=C(NCc1ccc(OC(F)(F)F)cc1)C1c2ccccc2C(=O)N1CCc1ccccn1 (stereo in doubt; 16A) | 2 | inactive | 0.5 | 44% | inactive | inactive | inactive | inactive | inactive | inactive | 44 | inactive | inactive | inactive | inactive | 0.045 | 5.9 | 25 | 26 | 100 | inhibition in vivo at 140 µmol/kg [12]: 53%; inhibition in vivo at 140 µmol/kg [22]: 84%; AUC [23]: 1.7 µM·h; bioavailability [24]: 37%; inhibition [25]: inactive; IC50 [26]: 10 µM; Cmax [27]: 600 nM; inhibition [28]: inactive; inhibition in vivo at 100 µmol/kg [29]: 56%; inhibition in vivo at 30 µmol/kg [30]: 35%; inhibition in vivo at 100 µmol/kg [31]: 42%; inhibition [32]: inactive; inhibition [33]: inactive; inhibition [34]: inactive; AUC [35]: 2.1 µM·h
2 | O=C(NCc1ccc(OC(F)(F)F)cc1)C1c2ccccc2C(=O)N1C1CCOCC1 (single isomer, unassigned; enantiomer 2) | 1 | inactive | 0.3 | inactive | inactive | inactive | inactive | inactive | inactive | inactive | 65 | inactive | inactive | inactive | inactive | 0.132 | 1.9 | 34 | 16 | 79 | inhibition [36]: inactive; inhibition [37]: inactive; half-life [38]: 1 h; Vd [39]: 0.8 L/kg; microsomal CLint [40]: 15 µL/min/mg; inhibition in vivo at 140 µmol/kg [22]: 30%; AUC [23]: 1.7 µM·h; bioavailability [24]: 20%; inhibition [25]: inactive; IC50 [26]: > 33 µM; Cmax [27]: 600 nM; inhibition [28]: inactive; inhibition in vivo at 100 µmol/kg [29]: 54%; inhibition in vivo at 100 µmol/kg [31]: 42%; inhibition [32]: inactive; inhibition [33]: inactive; clearance [41]: 30 mL/min/kg; inhibition [34]: inactive; microsomal CLint [42]: < 10 µL/min/mg; AUC [35]: 1.1 µM·h
